According to patent publication US11566057B2, “Long-acting co-agonists of the glucagon and GLP-1 receptors” (Merck Sharp & Dohme Corp., priority 2017, dated 2023):
Read-outs that look alike come from different tables or passages of the source. Numbered stars: 1 amine (or outer) side, 2 acyl side, 3 side chain; on linkers, the order of the positions; unused ones are H or OH. Square brackets hold non-standard residues; d marks the D form. Side chains are listed from the residue outwards. Peptide text beside a SMILES is read from it. * marks the point of attachment. C20 diacid = O=C(O)CCCCCCCCCCCCCCCCCCC(=O)*; Phe(4-CH2NH2) = NCc1ccc(C[C@H](N)C(=O)O)cc1; C18 diacid = O=C(O)CCCCCCCCCCCCCCCCC(=O)*; αMeW = C[C@](N)(Cc1c[nH]c2ccccc12)C(=O)O; C16 diacid = O=C(O)CCCCCCCCCCCCCCC(=O)*; γGlu = O=C(O)[C@H](CCC(=O)[*:2])N[*:1]; Met(O2) = CS(=O)(=O)CC[C@H](N)C(=O)O; αMeD = C[C@](N)(CC(=O)O)C(=O)O; AEEA = NCCOCCOCC(=O)O; Aib = CC(C)(N)C(=O)O

Tests used:
human GCGR = target: T1, human GCGR (Homo sapiens, UniProt P47871); test: cAMP activity assay at the Glucagon receptor (GCGR); type: cell-based; settings: for hGCGR/hGLP1R (hTone): ratio of GCGR EC50 to GLP1R EC50
T1 construct: expressed in transfected cells; growth medium holds Blasticidin and Hygromycin
T1 sequence (P47871 26-477): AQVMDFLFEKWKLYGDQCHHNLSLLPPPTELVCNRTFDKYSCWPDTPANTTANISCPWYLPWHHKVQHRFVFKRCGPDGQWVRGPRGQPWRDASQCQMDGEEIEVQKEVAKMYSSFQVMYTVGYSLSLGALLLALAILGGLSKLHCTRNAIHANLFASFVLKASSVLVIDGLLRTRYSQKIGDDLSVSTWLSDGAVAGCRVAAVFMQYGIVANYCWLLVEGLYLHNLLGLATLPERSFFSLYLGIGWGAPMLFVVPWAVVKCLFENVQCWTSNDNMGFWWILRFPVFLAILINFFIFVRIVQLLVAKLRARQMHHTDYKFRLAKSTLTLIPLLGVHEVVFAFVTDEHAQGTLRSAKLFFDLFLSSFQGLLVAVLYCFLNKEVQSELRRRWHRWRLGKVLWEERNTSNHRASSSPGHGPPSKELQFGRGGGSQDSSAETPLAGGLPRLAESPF
Description: (§1) Activity of the peptides at the Glucagon receptor (GCGR) and GLP-1 receptor (GLP1R) was measured in a cAMP activity assay.
(§2) GCG/GLP-1 receptor co-agonist peptides were dissolved in 100% DMSO (dimethyl sulfoxide) and serially diluted to generate 10 point titrations. The peptide solutions were then transferred into 384-well assay plates (150 nL/well). Assay ready frozen cells expressing human GLP1R or human GCGR were suspended in growth media consisting of DMEM medium (GIBCO®), 10% FBS (GIBCO®), 1×NEAA(GIBCO®), 1×P/S (GIBCO®), 10 ug/mL Blasticidin (GIBCO®) and 200 μg/mL Hygromycin (GIBCO®). […] The cell suspensions (15 μL) were then added to the assay plates containing the peptide solutions (30,000 cells/well for human GCGR; 10,000 cells/well for human GLP1R). The cells were incubated for 1 hour at room temperature in the dark. Production of cAMP was determined using HitHunter™ cAMPXS kits (DiscoverX) following manufacturer protocol. The plates were incubated for overnight at room temperature in the dark. Luminescence was measured using an EnVision Multilabel plate reader (Perkin Elmer). Native GLP-1 and Glucagon (Bachem) are used as control peptides. EC50 values were calculated using uses a 4 parameter logistic fit based on the Levenberg-Marquardt algorithm.

human GLP1R = target: T2, human GLP1R (Homo sapiens, UniProt P43220); test: cAMP activity assay at the GLP-1 receptor (GLP1R); type: cell-based
T2 construct: expressed in transfected cells; growth medium holds Blasticidin and Hygromycin
T2 sequence (P43220 24-463): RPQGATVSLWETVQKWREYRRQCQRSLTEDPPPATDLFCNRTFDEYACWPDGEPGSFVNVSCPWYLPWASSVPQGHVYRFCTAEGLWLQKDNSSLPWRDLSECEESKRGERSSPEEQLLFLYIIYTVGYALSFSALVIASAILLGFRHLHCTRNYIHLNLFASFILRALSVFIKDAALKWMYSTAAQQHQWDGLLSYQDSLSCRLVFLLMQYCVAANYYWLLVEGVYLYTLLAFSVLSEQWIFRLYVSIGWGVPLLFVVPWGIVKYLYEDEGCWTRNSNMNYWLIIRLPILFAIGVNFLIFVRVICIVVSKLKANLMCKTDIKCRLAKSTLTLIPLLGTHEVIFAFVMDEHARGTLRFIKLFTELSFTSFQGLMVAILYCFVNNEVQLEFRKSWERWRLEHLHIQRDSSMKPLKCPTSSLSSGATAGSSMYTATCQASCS
Description: as §1, §2

Structure (SMILES) | hGCGR/hGLP1R (hTone) (human GCGR) | further results
CC(C)C[C@H](NC(=O)[C@H](Cc1ccc(O)cc1)NC(=O)[C@H](CCCCN)NC(=O)[C@H](CO)NC(=O)[C@H](Cc1ccc(O)cc1)NC(=O)[C@H](CC(=O)O)NC(=O)[C@H](CO)NC(=O)[C@@H](NC(=O)[C@H](Cc1ccccc1)NC(=O)[C@@H](NC(=O)CNC(=O)[C@H](CCC(N)=O)NC(=O)C(C)(C)NC(=O)[C@@H](N)Cc1c[nH]cn1)[C@@H](C)O)[C@@H](C)O)C(=O)N[C@@H](CC(=O)O)C(=O)N[C@@H](C)C(=O)N[C@@H](CCCNC(=N)N)C(=O)N[C@@H](C)C(=O)N[C@@H](C)C(=O)N[C@@H](CCCCNC(=O)COCCOCCNC(=O)COCCOCCNC(=O)CC[C@H](NC(=O)CCCCCCCCCCCCCCCCC(=O)O)C(=O)O)C(=O)N[C@@H](CCC(=O)O)C(=O)N[C@@H](Cc1ccccc1)C(=O)N[C@H](C(=O)N[C@@H](CCC(N)=O)C(=O)N[C@@H](Cc1c[nH]c2ccccc12)C(=O)N[C@@H](CC(C)C)C(=O)N[C@@H](CCS(C)(=O)=O)C(=O)N[C@@](C)(CC(=O)O)C(=O)N[C@H](C(N)=O)[C@@H](C)O)C(C)C [TP713] (H-H[Aib]QGTFTSDYSKYLDARAAK([AEEA-AEEA-γGlu-C18 diacid])EFVQWL[Met(O2)][αMeD]T-NH2; N-terminus assumed) | 2.2 | EC50 (human GCGR; summary statement: EC50 at each of the glucagon and GLP-1 receptors, read-out: EC50 at the glucagon receptor): < 5 nM; EC50 (human GLP1R; cells expressing human GLP1R, cAMP production, buffer with or without 20% human serum (not stated which), read-out: GLP1R EC50 human): 0.71 nM; EC50 (human GLP1R; summary statement: EC50 at each of the glucagon and GLP-1 receptors, read-out: EC50 at the GLP-1 receptor): < 5 nM
CC(C)C[C@H](NC(=O)[C@H](Cc1ccc(O)cc1)NC(=O)[C@H](CCCCN)NC(=O)[C@H](CO)NC(=O)[C@H](Cc1ccc(O)cc1)NC(=O)[C@H](CC(=O)O)NC(=O)[C@H](CO)NC(=O)[C@@H](NC(=O)[C@H](Cc1ccccc1)NC(=O)[C@@H](NC(=O)CNC(=O)[C@H](CCC(N)=O)NC(=O)C(C)(C)NC(=O)[C@@H](N)Cc1c[nH]cn1)[C@@H](C)O)[C@@H](C)O)C(=O)N[C@@H](CC(=O)O)C(=O)N[C@@H](C)C(=O)N[C@@H](CCCNC(=N)N)C(=O)N[C@@H](C)C(=O)N[C@@H](C)C(=O)N[C@@H](CCC(N)=O)C(=O)N[C@@H](CC(=O)O)C(=O)N[C@@H](Cc1ccccc1)C(=O)N[C@H](C(=O)N[C@@H](CCC(N)=O)C(=O)N[C@@H](Cc1c[nH]c2ccccc12)C(=O)N[C@@H](CC(C)C)C(=O)N[C@@H](CCS(C)(=O)=O)C(=O)N[C@@H](Cc1ccc(CNC(=O)COCCOCCNC(=O)COCCOCCNC(=O)CC[C@H](NC(=O)CCCCCCCCCCCCCCCCC(=O)O)C(=O)O)cc1)C(=O)N[C@H](C(N)=O)[C@@H](C)O)C(C)C [TP604] (H-H[Aib]QGTFTSDYSKYLDARAAQDFVQWL[Met(O2)][Phe(4-CH2NH2)]([AEEA-AEEA-γGlu-C18 diacid])T-NH2; N-terminus assumed) | 2.3 | –
CC(C)C[C@H](NC(=O)[C@H](Cc1ccc(O)cc1)NC(=O)[C@H](CCCCN)NC(=O)[C@H](CO)NC(=O)[C@H](Cc1ccc(O)cc1)NC(=O)[C@H](CC(=O)O)NC(=O)[C@H](CO)NC(=O)[C@@H](NC(=O)[C@H](Cc1ccccc1)NC(=O)[C@@H](NC(=O)CNC(=O)[C@H](CCC(N)=O)NC(=O)C(C)(C)NC(=O)[C@@H](N)Cc1c[nH]cn1)[C@@H](C)O)[C@@H](C)O)C(=O)N[C@@H](CC(=O)O)C(=O)N[C@@H](C)C(=O)N[C@@H](CCCNC(=N)N)C(=O)N[C@@H](C)C(=O)N[C@@H](C)C(=O)N[C@@H](CCC(N)=O)C(=O)N[C@@H](CC(=O)O)C(=O)N[C@@H](Cc1ccccc1)C(=O)N[C@H](C(=O)N[C@@H](Cc1ccc(CNC(=O)COCCOCCNC(=O)COCCOCCNC(=O)CC[C@H](NC(=O)CCCCCCCCCCCCCCCCC(=O)O)C(=O)O)cc1)C(=O)N[C@@H](Cc1c[nH]c2ccccc12)C(=O)N[C@@H](CC(C)C)C(=O)N[C@@H](CC(C)C)C(=O)N[C@@H](CC(=O)O)C(=O)N[C@H](C(N)=O)[C@@H](C)O)C(C)C [TP583] (H-H[Aib]QGTFTSDYSKYLDARAAQDFV[Phe(4-CH2NH2)]([AEEA-AEEA-γGlu-C18 diacid])WLLDT-NH2; N-terminus assumed) | 8.6 | –
CC(C)C[C@H](NC(=O)[C@H](Cc1ccc(O)cc1)NC(=O)[C@H](CCCCN)NC(=O)[C@H](CO)NC(=O)[C@H](Cc1ccc(O)cc1)NC(=O)[C@H](CC(=O)O)NC(=O)[C@H](CO)NC(=O)[C@@H](NC(=O)[C@H](Cc1ccccc1)NC(=O)[C@@H](NC(=O)CNC(=O)[C@H](CCC(N)=O)NC(=O)C(C)(C)NC(=O)[C@@H](N)Cc1c[nH]cn1)[C@@H](C)O)[C@@H](C)O)C(=O)N[C@@H](CC(=O)O)C(=O)N[C@@H](C)C(=O)N[C@@H](CCCNC(=N)N)C(=O)N[C@@H](C)C(=O)N[C@@H](C)C(=O)N[C@@H](CCCCNC(=O)COCCOCCNC(=O)COCCOCCNC(=O)CC[C@H](NC(=O)CCCCCCCCCCCCCCC(=O)O)C(=O)O)C(=O)N[C@@H](CC(=O)O)C(=O)N[C@@H](Cc1ccccc1)C(=O)N[C@H](C(=O)N[C@@H](CCC(N)=O)C(=O)N[C@@](C)(Cc1c[nH]c2ccccc12)C(=O)N[C@@H](CC(C)C)C(=O)N[C@@H](CCS(C)(=O)=O)C(=O)N[C@@H](CC(=O)O)C(=O)N[C@H](C(N)=O)[C@@H](C)O)C(C)C [TP630] (H-H[Aib]QGTFTSDYSKYLDARAAK([AEEA-AEEA-γGlu-C16 diacid])DFVQ[αMeW]L[Met(O2)]DT-NH2; N-terminus assumed) | 3.0 | –
CC(C)C[C@H](NC(=O)[C@H](Cc1ccc(O)cc1)NC(=O)[C@H](CCCCN)NC(=O)[C@H](CO)NC(=O)[C@H](Cc1ccc(O)cc1)NC(=O)[C@H](CC(=O)O)NC(=O)[C@H](CO)NC(=O)[C@@H](NC(=O)[C@H](Cc1ccccc1)NC(=O)[C@@H](NC(=O)CNC(=O)[C@H](CCC(N)=O)NC(=O)C(C)(C)NC(=O)[C@@H](N)Cc1c[nH]cn1)[C@@H](C)O)[C@@H](C)O)C(=O)N[C@@H](CC(=O)O)C(=O)N[C@@H](CCC(=O)O)C(=O)N[C@@H](CCCNC(=N)N)C(=O)N[C@@H](C)C(=O)N[C@@H](C)C(=O)N[C@@H](CCCCNC(=O)COCCOCCNC(=O)COCCOCCNC(=O)CC[C@H](NC(=O)CCCCCCCCCCCCCCCCC(=O)O)C(=O)O)C(=O)N[C@@H](CC(=O)O)C(=O)N[C@@H](Cc1ccccc1)C(=O)N[C@H](C(=O)N[C@@H](CCC(N)=O)C(=O)N[C@@H](Cc1c[nH]c2ccccc12)C(=O)N[C@@H](CC(C)C)C(=O)N[C@@H](CCS(C)(=O)=O)C(=O)N[C@@](C)(CC(=O)O)C(=O)N[C@H](C(N)=O)[C@@H](C)O)C(C)C [TP613] (H-H[Aib]QGTFTSDYSKYLDERAAK([AEEA-AEEA-γGlu-C18 diacid])DFVQWL[Met(O2)][αMeD]T-NH2) | >6 | EC50 (human GCGR; cells expressing human GCGR, cAMP production, buffer with or without 20% human serum (not stated which), read-out: GCGR EC50 human): > 5 nM
CC(C)C[C@H](NC(=O)[C@H](CC(C)C)NC(=O)[C@H](Cc1c[nH]c2ccccc12)NC(=O)[C@H](CCC(N)=O)NC(=O)[C@@H](NC(=O)[C@H](Cc1ccccc1)NC(=O)[C@H](CC(=O)O)NC(=O)[C@H](CCC(N)=O)NC(=O)[C@H](C)NC(=O)[C@H](C)NC(=O)[C@H](CCCNC(=N)N)NC(=O)C(C)(C)NC(=O)[C@H](CC(=O)O)NC(=O)[C@H](CC(C)C)NC(=O)[C@H](Cc1ccc(O)cc1)NC(=O)[C@H](CCCCN)NC(=O)[C@H](CO)NC(=O)[C@H](Cc1ccc(CNC(=O)COCCOCCNC(=O)COCCOCCNC(=O)CC[C@H](NC(=O)CCCCCCCCCCCCCCCCCCC(=O)O)C(=O)O)cc1)NC(=O)[C@H](CC(=O)O)NC(=O)[C@H](CO)NC(=O)[C@@H](NC(=O)[C@H](Cc1ccccc1)NC(=O)[C@@H](NC(=O)CNC(=O)[C@H](CCC(N)=O)NC(=O)C(C)(C)NC(=O)[C@@H](N)Cc1c[nH]cn1)[C@@H](C)O)[C@@H](C)O)C(C)C)C(=O)N[C@@H](C)C(=O)N[C@H](C(=O)N[C@@H](CCCCNC(=O)CC[C@H](N)C(=O)O)C(N)=O)[C@@H](C)O [TP581] (H-H[Aib]QGTFTSD[Phe(4-CH2NH2)]([AEEA-AEEA-γGlu-C20 diacid])SKYLD[Aib]RAAQDFVQWLLATK(γGlu)-NH2; N-terminus assumed) | 2.9 | –
CC(C)C[C@H](NC(=O)[C@H](Cc1c[nH]c2ccccc12)NC(=O)[C@H](CCC(N)=O)NC(=O)[C@@H](NC(=O)[C@H](Cc1ccccc1)NC(=O)[C@H](CC(=O)O)NC(=O)[C@H](CCC(N)=O)NC(=O)[C@H](C)NC(=O)[C@H](C)NC(=O)[C@H](CCCNC(=N)N)NC(=O)C(C)(C)NC(=O)[C@H](CC(=O)O)NC(=O)[C@H](CC(C)C)NC(=O)[C@H](Cc1ccc(O)cc1)NC(=O)[C@H](CCCCN)NC(=O)[C@H](CO)NC(=O)[C@H](Cc1ccc(O)cc1)NC(=O)[C@H](CC(=O)O)NC(=O)[C@H](CO)NC(=O)[C@@H](NC(=O)[C@H](Cc1ccccc1)NC(=O)[C@@H](NC(=O)CNC(=O)[C@H](CCC(N)=O)NC(=O)[C@@H](CO)NC(=O)[C@@H](N)Cc1c[nH]cn1)[C@@H](C)O)[C@@H](C)O)C(C)C)C(=O)N[C@@H](CC(C)C)C(=O)N[C@@H](CCCCNC(=O)COCCOCCNC(=O)COCCOCCNC(=O)CC[C@H](NC(=O)CCCCCCCCCCCCCCCCC(=O)O)C(=O)O)C(=O)N[C@H](C(=O)N[C@@H](CCCCN)C(=O)N[C@@H](CCC(N)=O)C(=O)O)[C@@H](C)O [TP685] (H-H[dS]QGTFTSDYSKYLD[Aib]RAAQDFVQWLLK([AEEA-AEEA-γGlu-C18 diacid])TKQ-OH; N-terminus and C-terminus assumed) | 7.9 | –
